# Values joined by “and” are separate entries in the source; they are usually repeats but may differ in a detail not shown here. Equal values may be shown once. Where a name gives a salt, the structure may show the parent alone.
# Test system: lymphocytic leukemia P388
# Experiment: Lymphocytic leukemia P388 test
# Format: in vivo, BDF/1 mice
# Conditions: for Median Survival: mice with P388 leukemia; for T/Cx100: survival time treated/control
# Protocol: Lymphocytic leukemia P388 test
# The animals used were BDF/1 mice all of one sex, weighing a minimum of 18 g and all within a 3 g weight range. There were 5 or 6 animals per test group. The tumor transplant was by intraperitoneal injection of 0.5 ml of dilute ascitic fluid containing 10⁶ cells of lymphocytic leukemia P388. The test compounds were administered intraperitoneally on days 1,5 and 9 relative to tumor inoculation, at various doses. The animals were weighed and survivors recorded on a regular basis for 30 days. The median survival time and the ratio of survival time for treated (T)/control (C) animals were calculated. The positive control compound was either 1,4-dihydroxy-5,8-bis[[2-(2-hydroxyethylamino)ethyl]-amino]anthraquinone dihydrochloride or Cisplatin.
# [1] = dose 0.2 mg/kg intraperitoneally on days 1, 5 and 9
# [2] = dose 0.6 mg/kg intraperitoneally on days 1, 5 and 9, 0.6 mg/kg
# [3] = dose 0.8 mg/kg intraperitoneally on days 1, 5 and 9, 0.8 mg/kg
# [4] = dose 1.2 mg/kg intraperitoneally on days 1, 5 and 9
# [5] = dose 1.25 mg/kg intraperitoneally on days 1, 5 and 9
# [6] = dose 1.5 mg/kg intraperitoneally on days 1, 5 and 9
# [7] = dose 2.5 mg/kg intraperitoneally on days 1, 5 and 9
# [8] = Mus musculus, P388, ip, read-out: T/Cx100
# [9] = dose 50 mg/kg intraperitoneally on days 1, 5 and 9
# [10] = dose 200 mg/kg intraperitoneally on days 1, 5 and 9
compound,measurement,setting,value
N.N.[Cl][Pt][Cl] [Cisplatin],Median Survival,[1],21 days
same,T/Cx100,[1],210%
same,Median Survival,[2],21 days and 22.5 days
same,T/Cx100,[2],196% and 221%
same,Median Survival,[3],26.5 days and 23.5 days
same,T/Cx100,[3],217% and 235%
same,Median Survival,[4],22 days
same,T/Cx100,[4],206%
same,Median Survival,[5],13.5 days
same,T/Cx100,[5],132%
same,Median Survival,[6],22.5 days
same,T/Cx100,[6],184%
same,Median Survival,[7],16 days
same,T/Cx100,[7],150%
"O=C1c2c(O)ccc(O)c2C(=O)c2c(NCCNCCO)ccc(NCCNCCO)c21 [1,4-dihydroxy-5,8-bis[[2-(2-hydroxyethylamino)ethyl]-amino]anthraquinone dihydrochloride]",response vs control in vivo at 0.025 mg/kg,[8],110%
same,response vs control in vivo at 0.1 mg/kg,[8],136%
same,response vs control in vivo at 0.4 mg/kg,[8],153%
same,response vs control in vivo at 1.6 mg/kg,[8],212%
"hydrazinecarboximidamide, compound with platinum chloride (1:1)",Median Survival,[9],20.5 days
same,T/Cx100,[9],174%
same,Median Survival,[10],23 days
same,T/Cx100,[10],195%
